Data published in patent publication US20100125053A1, “Allosteric Modulation of the Dopamine Transporter Protein for the Treatment of HIV-1 Induced Neurologic Dysfunction” (priority 2008, published 2010).

Test system: striatal synaptosomes
Test: [3H]leucine uptake assay in rat striatal synaptosomes (electrochemical gradients)
Assay type: cell-based
Settings: 15 min preincubation, [3H]leucine 10 min
Experimental: [^3H]Leucine Uptake Assay. […] The uptake assay was performed in duplicate with a final volume of 250 μl. […] TatΔ31-61 and leucine were chosen as negative and positive controls, respectively. Assay tubes were placed in an oxygenated metabolic shaker at 34° C. for 15 min. Subsequently, 1 μM [^3H]leucine (final concentration, 25 μl) was added to each tube and incubation was continued for 10 min at 34° C. in the metabolic shaker. […] Nonspecific uptake for [^3H]leucine and [^3H]DA was determined in the presence of 10 mM L-lysine and 10 μM nomifensine, respectively. Incubation was terminated by the addition of 3 ml of ice-cold assay buffer, followed by immediate filtration through Whatman GF/B glass fiber filters. Filters were washed 3 times with 3 ml ice-cold assay buffer using a Brandel cell harvester.

**Q.** What does the source list for `CC(C)C[C@H](N)C(=O)O` [leucine]?
**A.** inhibition at 1 µM (1 μM): ~10%; inhibition at 10 µM (10 μM, read-out: inhibition / decrease of [3H]leucine uptake): ~40%
